Test results as given in patent US6426229B1, “Chelating agent and detergent comprising the same” (Mitsubishi Rayon Co., Ltd., priority 1995, dated 2002).

Experiment: Compression strength (hardening property) of powder stored under load for 2 months
Format: physicochemical
Conditions: Load 100 (table head [Kg]; text 100 g/cm^2); 20-30° C., relative humidity 40-70%
Experimental: Method for the Measurement of Compression Strength
(1) A test sample (500 g) is put in a poly-ethylene bag of 20 cm×20 cm in a room at a temperature of 20-30° C. and a relative humidity of 40-70%. The powder is levelled to an area of 20 cm×20 cm and air is forced out of the bag, and, then, the bag is sealed. This bag is further put in a kraft bag and this kraft bag is sealed.
(2) The kraft bag of (1) is placed horizontally on a flat plate and a plate is put thereon. […]
(3) With keeping the temperature of 20-30° C. and the relative humidity of 40-70%, the test sample is taken out after lapse of 2 months from the starting of application of load. Several test pieces (4 cm long×4 cm broad×2 cm high) are cut out from the sample.

Row | Structure (SMILES) | Compression strength after stored for 2 months [Kg/cm^2]
1 | O=C(O)CN(CC(=O)O)c1ccccc1C(=O)O [compound 14, anthranilic acid-N,N-diacetic acid, reference compound] | 2.5
2 | O=C(O)CN[C@@H](CC(=O)O)C(=O)O [compound 5, (S)-aspartic acid-N-monoacetic acid, reference compound] | 2.8
3 | O=C([O-])CN(CC(=O)[O-])c1ccccc1C(=O)[O-].[Na+].[Na+].[Na+] [compound 11, trisodium salt of anthranilic acid-N,N-diacetic acid, reference compound] | 2.5
4 | O=C([O-])CCN[C@@H](CC(=O)[O-])C(=O)[O-].[Na+].[Na+].[Na+] [compound 2, trisodium salt of (S)-aspartic acid-N-monopropionic acid, reference compound] | 3.0
5 | O=C(O)C[C@H](NCC(O)CN[C@@H](CC(=O)O)C(=O)O)C(=O)O [compound 25, (S,S)-2-hydroxy-1,3-propanediaminedisuccinic acid, reference compound] | 2.5
6 | O=C([O-])C[C@H](NCCCN[C@@H](CC(=O)[O-])C(=O)[O-])C(=O)[O-].[Na+].[Na+].[Na+].[Na+] [compound 19, tetrasodium (S,S)-1,3-propanediaminedisuccinate, reference compound] | 2.9
7 | O=C(O)CN[C@@H](CC(=O)O)C(=O)O [Example 17, (S)-aspartic acid-N-monoacetic acid] | 0.9
8 | O=C([O-])C[C@H](NCCN[C@@H](CC(=O)[O-])C(=O)[O-])C(=O)[O-].[Cu+2].[Na+].[Na+] [compound 27, copper disodium (S,S)-ethylenediaminedisuccinate, reference compound] | 2.8
9 | O=C(O)CCN[C@@H](CC(=O)O)C(=O)O [compound 6, (S)-aspartic acid-N-monopropionic acid, reference compound] | 2.5
10 | O=C([O-])C[C@H](NCCN[C@@H](CC(=O)[O-])C(=O)[O-])C(=O)[O-].[Fe+3].[NH4+] [compound 26, iron ammonium (S,S)-ethylenediaminedisuccinate, reference compound] | 2.7
11 | O=C(O)CC(NCCCNC(CC(=O)O)C(=O)O)C(=O)O (stereo not drawn) [Example 68, 1,3-propanediaminedisuccinic acid] | 1.2
12 | O=C([O-])CC(NCCCNC(CC(=O)[O-])C(=O)[O-])C(=O)[O-].[Na+].[Na+].[Na+].[Na+] (stereo not drawn) [Example 53, tetrasodium 1,3-propanediaminedisuccinate] | 0.8
13 | O=C(O)C[C@H](NCCN[C@@H](CC(=O)O)C(=O)O)C(=O)O [Example 67, (S,S)-ethylenediaminedisuccinic acid] | 1.1
14 | O=C([O-])CC(NCCCNC(CC(=O)[O-])C(=O)[O-])C(=O)[O-].[Na+].[Na+].[Na+].[Na+] (stereo not drawn) [compound 18, tetrasodium 1,3-propanediaminedisuccinate, reference compound] | 3.0
15 | C[C@@H](C(=O)O)N(CC(=O)O)CC(=O)O [compound 8, (S)-α-alanine-N,N-diacetic acid, reference compound] | 2.6
16 | O=C([O-])C[C@@H](C(=O)[O-])N(CC(=O)[O-])CC(=O)[O-].[Na+].[Na+].[Na+].[Na+] [compound 3, tetrasodium salt of (S)-aspartic acid-N,N-diacetic acid, reference compound] | 3.2

Same assay, conditions: Load 200 (table head [Kg]; text 200 g/cm^2); 20-30° C., relative humidity 40-70%

Row | Structure (SMILES) | Compression strength after stored for 2 months [Kg/cm^2]
17 | O=C([O-])C[C@H](NCCN[C@@H](CC(=O)[O-])C(=O)[O-])C(=O)[O-].[Na+].[Na+].[Na+].[Na+] [Example 47, tetrasodium (S,S)-ethylenediaminedisuccinate] | 1.2
18 | O=C([O-])CCN[C@@H](CC(=O)[O-])C(=O)[O-].[Na+].[Na+].[Na+] [Example 2, trisodium salt of (S)-aspartic acid-N-monopropionic acid] | 1.0
19 | O=C(O)C[C@H](NCC(O)CN[C@@H](CC(=O)O)C(=O)O)C(=O)O [Example 65, (S,S)-2-hydroxy-1,3-propanediaminedisuccinic acid] | 1.0
20 | O=C(O)CCN[C@@H](CC(=O)O)C(=O)O [Example 14, (S)-aspartic acid-N-monopropionic acid] | 0.6
21 | CN(CC(=O)O)CC(=O)O [Example 35, N-methyliminodiacetic acid] | 0.8
22 | O=C([O-])CN(CC(=O)[O-])c1ccccc1C(=O)[O-].[Na+].[Na+].[Na+] [Example 27, trisodium salt of anthranilic acid-N,N-diacetic acid] | 1.0
23 | O=C([O-])C[C@@H](C(=O)[O-])N(CC(=O)[O-])CC(=O)[O-].[Na+].[Na+].[Na+].[Na+] [Example 3, tetrasodium salt of (S)-aspartic acid-N,N-diacetic acid] | 0.9
24 | O=C([O-])C[C@H](NCCCN[C@@H](CC(=O)[O-])C(=O)[O-])C(=O)[O-].[Fe+3].[NH4+] [Example 82, iron ammonium (S,S)-1,3-propanediaminedisuccinate] | 1.1
25 | O=C(O)CN[C@@H](CC(=O)O)C(=O)O [Example 13, (S)-aspartic acid-N-monoacetic acid] | 1.1
26 | O=C([O-])CC(NCCNC(CC(=O)[O-])C(=O)[O-])C(=O)[O-].[Na+].[Na+].[Ni+2] (stereo not drawn) [Example 78, nickel disodium ethylenediaminedisuccinate] | 1.0
27 | O=C([O-])C[C@H](NCCCN[C@@H](CC(=O)[O-])C(=O)[O-])C(=O)[O-].[Na+].[Na+].[Na+].[Na+] [Example 49, tetrasodium (S,S)-1,3-propanediaminedisuccinate] | 1.3

Same assay, conditions: Load 300 (table head [Kg]; text 300 g/cm^2); 20-30° C., relative humidity 40-70%

Row | Structure (SMILES) | Compression strength after stored for 2 months [Kg/cm^2]
28 | O=C([O-])CN[C@@H](CC(=O)[O-])C(=O)[O-].[Na+].[Na+].[Na+] [Example 9, trisodium salt of (S)-aspartic acid-N-monoacetic acid] | 0.8
29 | O=C(O)C[C@H](NCCN[C@@H](CC(=O)O)C(=O)O)C(=O)O [Example 72, (S,S)-ethylenediaminedisuccinic acid] | 1.3
30 | O=C(O)C[C@H](NCC(O)CN[C@@H](CC(=O)O)C(=O)O)C(=O)O [Example 75, (S,S)-2-hydroxy-1,3-propanediaminedisuccinic acid] | 1.0
31 | O=C([O-])C[C@H](NCCCN[C@@H](CC(=O)[O-])C(=O)[O-])C(=O)[O-].[Na+].[Na+].[Na+].[Na+] [Example 59, tetrasodium (S,S)-1,3-propanediaminedisuccinate] | 1.1
32 | O=C([O-])CC(NCCCNC(CC(=O)[O-])C(=O)[O-])C(=O)[O-].[Na+].[Na+].[Na+].[Na+] (stereo not drawn) [Example 58, tetrasodium 1,3-propanediaminedisuccinate] | 1.0
33 | O=C([O-])CC(NCCNC(CC(=O)[O-])C(=O)[O-])C(=O)[O-].[Na+].[Na+].[Na+].[Na+] (stereo not drawn) [Example 56, tetrasodium ethylenediaminedisuccinate] | 0.8
34 | O=C(O)CC(NCCCNC(CC(=O)O)C(=O)O)C(=O)O (stereo not drawn) [Example 73, 1,3-propanediaminedisuccinic acid] | 1.1
35 | O=C(O)CCN[C@@H](CC(=O)O)C(=O)O [Example 22, (S)-aspartic acid-N-monopropionic acid] | 0.9
36 | O=C([O-])CCN[C@@H](CC(=O)[O-])C(=O)[O-].[Na+].[Na+].[Na+] [Example 10, trisodium salt of (S)-aspartic acid-N-monopropionic acid] | 1.0
37 | CN(CC(=O)[O-])CC(=O)[O-].[Na+].[Na+] [Example 32, disodium N-methyliminodiacetate] | 0.8

Same assay, conditions: after 2 months under the load of 200 [g/cm^2]

Row | Structure (SMILES) | compression strength of the test piece [kg/cm^2] | state of the test piece after storage
38 | O=C([O-])CN[C@@H](CC(=O)[O-])C(=O)[O-].[Na+].[Na+].[Na+] [Example 1, trisodium salt of (S)-aspartic acid-N-monoacetic acid] | 1.2 | it could be disintegrated without any special grinding treatment
